Earlier results, collected in US20220175799A1, “COMPOSITIONS HAVING THE ABILITY TO PROMOTE HEALTHY CHOLESTEROL LEVELS” (Brilliant Lab LLC, priority 2020, published 2022).
Read-outs that look alike come from different tables or passages of the source.

What was measured:
[1] = not given; remark: listed apart in the source
[2] = not given; remark: listed apart in the source

In the case of `CC(C)c1nc(N(C)S(C)(=O)=O)nc(-c2ccc(F)cc2)c1/C=C/[C@@H](O)C[C@@H](O)CC(=O)O` [Rosuvastatin], the “Reduction in LDL-C levels” value (statin daily oral dose 5 mg) is listed as 71.1528 mg/dL, the “Reduction in LDL-C levels” value (statin daily oral dose 10 mg) is listed as 80.4336 mg/dL and the “Reduction in LDL-C levels” value (statin daily oral dose 20 mg) is listed as 89.7144 mg/dL. For the same compound, the “Reduction in LDL-C levels” value (statin daily oral dose 40 mg) was 98.9952 mg/dL, the “Reduction in LDL-C levels” value (statin daily oral dose 80 mg) was 108.276 mg/dL and the “% LDL-C Reduction” value ([1]; statin dose 5 mg) was 44%. For the same compound, the “% LDL-C Reduction” value ([1]; statin dose 10 mg) was 52%, the “% LDL-C Reduction” value ([1]; statin dose 20 mg) was 56% and the “% LDL-C Reduction” value ([1]; statin dose 40 mg) was 63%.
For `CC(C)n1c(/C=C/C(O)CC(O)CC(=O)O)c(-c2ccc(F)cc2)c2ccccc21` (stereo not shown) [Fluvastatin], the “Reduction in LDL-C levels” value (statin daily oral dose 5 mg) is given as 17.7882 mg/dL, the “Reduction in LDL-C levels” value (statin daily oral dose 10 mg) is given as 28.6158 mg/dL and the “Reduction in LDL-C levels” value (statin daily oral dose 20 mg) is given as 39.4434 mg/dL. For the same compound, the “Reduction in LDL-C levels” value (statin daily oral dose 40 mg) was 50.271 mg/dL, the “Reduction in LDL-C levels” value (statin daily oral dose 80 mg) was 61.0986 mg/dL and the “% LDL-C Reduction” value ([1]; statin dose 20 mg) was 20%. The “% LDL-C Reduction” value ([1]; statin dose 40 mg) was 24% and the “% LDL-C Reduction” value ([1]; statin dose 80 mg) was 34%.
For `COc1ccc2cc3[n+](cc2c1OC)CCc1cc2c(cc1-3)OCO2` [berberine], the “reduction of LDL-cholesterol in subjects” value ([2]; 1 g daily) is given as about 16.4% and the “reduction of total cholesterol in subjects” value ([2]; 1 g daily) is given as “about 11.6%”.
In the case of `CC[C@H](C)C(=O)O[C@H]1C[C@@H](C)C=C2C=C[C@H](C)[C@H](CC[C@@H]3C[C@@H](O)CC(=O)O3)[C@H]21` [Lovastatin], the “Reduction in LDL-C levels” value (statin daily oral dose 10 mg) is listed as 39.4434 mg/dL, the “Reduction in LDL-C levels” value (statin daily oral dose 20 mg) is listed as 54.138 mg/dL and the “Reduction in LDL-C levels” value (statin daily oral dose 40 mg) is listed as 68.4459 mg/dL. For the same compound, the “Reduction in LDL-C levels” value (statin daily oral dose 80 mg) was 83.1405 mg/dL, the “% LDL-C Reduction” value ([1]; statin dose 10 mg) was 20% and the “% LDL-C Reduction” value ([1]; statin dose 20 mg) was 26%. For the same compound, the “% LDL-C Reduction” value ([1]; statin dose 40 mg) was 30% and the “% LDL-C Reduction” value ([1]; statin dose 80 mg) was 38%.
In the case of `CC(C)=CCC/C(C)=C/C=C/C(C)=C/C=C/C(C)=C/C=C/C=C(C)/C=C/C=C(C)/C=C/C=C(\C)CCC=C(C)C` [lycopene], the “reduction of LDL-cholesterol in subjects” value ([2]; 22 mg daily) is listed as “about 3.7 mg/dl”.
For `CC(C)c1c(C(=O)Nc2ccccc2)c(-c2ccccc2)c(-c2ccc(F)cc2)n1CC[C@@H](O)C[C@@H](O)CC(=O)O` [Atorvastatin], the “Reduction in LDL-C levels” value (statin daily oral dose 5 mg) is listed as 58.3917 mg/dL, the “Reduction in LDL-C levels” value (statin daily oral dose 10 mg) is listed as 69.2193 mg/dL and the “Reduction in LDL-C levels” value (statin daily oral dose 20 mg) is listed as 80.0469 mg/dL. For the same compound, the “Reduction in LDL-C levels” value (statin daily oral dose 40 mg) was 91.2612 mg/dL, the “Reduction in LDL-C levels” value (statin daily oral dose 80 mg) was 102.0888 mg/dL and the “% LDL-C Reduction” value ([1]; statin dose 10 mg) was 38%. The “% LDL-C Reduction” value ([1]; statin dose 20 mg) was 42%, the “% LDL-C Reduction” value ([1]; statin dose 40 mg) was 52% and the “% LDL-C Reduction” value ([1]; statin dose 80 mg) was 60%.
In the case of `O=C(O)C[C@H](O)C[C@H](O)/C=C/c1c(C2CC2)nc2ccccc2c1-c1ccc(F)cc1` [Pitavastatin], the “% LDL-C Reduction” value ([1]; statin dose 1 mg) is listed as 30%, the “% LDL-C Reduction” value ([1]; statin dose 2 mg) is listed as 32% and the “% LDL-C Reduction” value ([1]; statin dose 4 mg) is listed as 42%.
